Measurements reported in patent US20060094695A1, “Hypoestoxides, derivatives and agonists thereof for use in the prophylaxis and treatment of obesity” (Paraquest, Inc., priority 2004, published 2006).

Experiments:
C57BL/6J-Lep^ob mice [1] = experiment: Treatment of Obesity in Mice (Table 2); type: in vivo; conditions: 10 mg/kg orally once a day for 50 days, approx. 4 months old, one mouse
Procedure: Treatment of obesity with hypoestoxide and hypoestes rosea dried leaf powder was also studied. Hypoestoxide and hypoestes rosea dried leaf powder was administered to C57BL/6J-Lep^ob mice. The mice were treated at approximately 4 months of age at a weight of approximately 50 grams. One mouse was placed in each of three treatment conditions: (i) control; (ii) hypoestoxide was administered orally at a dose of 10 mg/kg; or (iii) hypoestes dried leaf powder was administered orally at a dose of 100 mg/kg. Treatments were administered once a day, with hypoestoxide treatment lasting 50 days and hypoestes dried leaf powder treatment lasting 21 days.

C57BL/6J-Lep^ob mice [2] = experiment: Prevention of Obesity in Mice (Table 1); type: in vivo; conditions: 4-week-old female mice, in g
Procedure: The ability of hypoestoxides and hypoestes rosea dried leaf powder to prevent obesity was studied. Hypoestoxide and hypoestes rosea dried leaf powder was administered to C57BL/6J-Lep^ob mice. The mice are homozygous for the obese spontaneous mutation and are first recognizable as such at approximately 4 weeks of age. At 4 weeks, the mice weigh 20-25 grams, and may reach three to four times the weight of wild-type mice. Three 4-week-old female mice were placed in each of four treatment conditions, for a total of twelve mice in the study: (i) control; (ii) hypoestoxide was administered orally at a dose of 10 mg/kg; (iii) hypoestoxide was administered orally at a dose of 100 mg/kg; or (iv) hypoestes dried leaf powder was administered orally at a dose of 100 mg/kg. Treatments were administered once a day and the study continued for 21 days.

## C=C1C(=O)C[C@H]2C[C@@H]3O[C@@]3(C)CC[C@@H]3O[C@@]3(C)C[C@@H](OC(C)=O)[C@H]1C2(C)C [Hypoestoxide, hypoestoxide]
C57BL/6J-Lep^ob mice [1]; day 7
  weight of mouse, Treatment of Obesity in Mice: 53 g
C57BL/6J-Lep^ob mice [1]; day 14
  weight of mouse, Treatment of Obesity in Mice: 51.5 g
C57BL/6J-Lep^ob mice [1]; day 21
  weight of mouse, Treatment of Obesity in Mice: 51 g
C57BL/6J-Lep^ob mice [1]; day 28
  weight of mouse, Treatment of Obesity in Mice: 50.4 g
C57BL/6J-Lep^ob mice [1]; day 35
  weight of mouse, Treatment of Obesity in Mice: 50 g
C57BL/6J-Lep^ob mice [1]; day 160
  weight of mouse, Treatment of Obesity in Mice: 69.8 g
C57BL/6J-Lep^ob mice [1]; day −1 (before treatment)
  weight of mouse, Treatment of Obesity in Mice: 53 g
C57BL/6J-Lep^ob mice [2]; 10 mg/kg orally once a day for 21 days
  weight of mice, Prevention of Obesity in Mice: 41.6 ± 2.0
C57BL/6J-Lep^ob mice [2]; 100 mg/kg orally once a day for 21 days
  weight of mice, Prevention of Obesity in Mice: 40.0 ± 1.5
C57BL/6J-Lep^ob mice [2]; day 7, 10 mg/kg orally once a day for 21 days
  weight of mice, Prevention of Obesity in Mice: 19.6 ± 2.0
C57BL/6J-Lep^ob mice [2]; day 7, 100 mg/kg orally once a day for 21 days
  weight of mice, Prevention of Obesity in Mice: 20.9 ± 1.2
C57BL/6J-Lep^ob mice [2]; day 14, 10 mg/kg orally once a day for 21 days
  weight of mice, Prevention of Obesity in Mice: 25.4 ± 1.6
C57BL/6J-Lep^ob mice [2]; day 14, 100 mg/kg orally once a day for 21 days
  weight of mice, Prevention of Obesity in Mice: 23.8 ± 0.6
C57BL/6J-Lep^ob mice [2]; day 21, 10 mg/kg orally once a day for 21 days
  weight of mice, Prevention of Obesity in Mice: 27.5 ± 1.5
C57BL/6J-Lep^ob mice [2]; day 21, 100 mg/kg orally once a day for 21 days
  weight of mice, Prevention of Obesity in Mice: 27.0 ± 0.8
C57BL/6J-Lep^ob mice [2]; day 28, 10 mg/kg orally once a day for 21 days
  weight of mice, Prevention of Obesity in Mice: 28.8 ± 2.3
C57BL/6J-Lep^ob mice [2]; day 28, 100 mg/kg orally once a day for 21 days
  weight of mice, Prevention of Obesity in Mice: 26.4 ± 2.2
C57BL/6J-Lep^ob mice [2]; day 35, 10 mg/kg orally once a day for 21 days
  weight of mice, Prevention of Obesity in Mice: 30.3 ± 3.2
C57BL/6J-Lep^ob mice [2]; day 35, 100 mg/kg orally once a day for 21 days
  weight of mice, Prevention of Obesity in Mice: 29.0 ± 2.9
C57BL/6J-Lep^ob mice [2]; day −1 (before treatment), group 10 mg/kg orally once a day for 21 days
  weight of mice, Prevention of Obesity in Mice: 21.0 ± 1.4
C57BL/6J-Lep^ob mice [2]; day −1 (before treatment), group 100 mg/kg orally once a day for 21 days
  weight of mice, Prevention of Obesity in Mice: 24.3 ± 1.1
